Values of other authors in patent publication US20230241042A1, “USE OF PENEHYCLIDINE IN TREATMENT OR PREVENTION OF VISION-IMPAIRING EYE DISEASES” (GRAND LIFE SCIENCES GROUP (WUHAN) CO., LTD., priority 2020, published 2023).

Assays:
[1] = tested on: FDM; conditions: in vivo
[2] = tested on: experimental myopia; conditions: topical eye drops or oral administration
[3] = tested on: chick modeled eyes with visual form deprivation myopia (FDM); conditions: day 8, 0.01% by mass injected into the vitreous cavity
[4] = tested on: FDM; conditions: daily subconjunctival injection

| SMILES | prevention of FDM and retinal damage [1] | inhibition of the occurrence of FDM [4] | other results |
| --- | --- | --- | --- |
| CC[N+](C)(CC)CCOC(=O)C(O)(c1ccccc1)C1CCCCC1 (stereo not shown) [Oxypheneonium, Oxyphenonium] | certain effect in preventing FDM without retinal damage |  |  |
| OC(CCN1CCCCC1)(c1ccccc1)C1CCCCC1 (stereo not shown) [trihexyphenidyl] |  |  | prevention of the progression of experimental myopia [2]: not effective in preventing the progression of experimental myopia |
| CN1[C@@H]2CC[C@H]1C[C@@H](OC(=O)C(CO)c1ccccc1)C2 (stereo partly shown) [atropine] | certain effect in preventing FDM without retinal damage |  | induced myopia [3]: −2.8 D; ocular axis extension [3]: 0.21 mm |
| C[C@@H]1OC(=O)[C@H]2C[C@H]3CCCC[C@@H]3[C@@H](/C=C/[C@H]3CCC[C@H](C)N3C)[C@@H]12 [Himbacine] | certain effect in preventing FDM without retinal damage |  |  |
| CN1CCN(CC(=O)N2c3ccccc3C(=O)Nc3cccnc32)CC1 [pirenzepine] | certain effect in preventing FDM without retinal damage | could inhibit the occurrence of FDM |  |
| C[N+]1(C)CCC(OC(=O)C(c2ccccc2)c2ccccc2)CC1.[I-] [4-DAMP] |  | ineffective |  |
| COc1ccccc1CNCCCCCCNCCCCCCCCNCCCCCCNCc1ccccc1OC [methoctramine] |  | ineffective |  |
